Results published in patent US20210356467A1, “SYSTEMS AND METHOD FOR SCREENING SMALL MOLECULES OF INTEREST” (TECHNOLOGY INNOVATION MOMENTUM FUND (ISRAEL) LIMITED …, priority 2018, published 2021).

Experiments:
[1] = target: T1, GSPT1 ubiquitylation by CRBN (Homo sapiens, UniProt P15170+Q96SW2); assay: split-CAT selective growth assay, GSPT1 as ubiquitylation target of CRBN; format: cell-based; design: expressed in transfected cells; host or cells: E. coli; conditions: for growth of E. coli that express GSPT1 (ubiquitylation dependent growth, OD600): split-CAT system, Cereblon-E2 (Ubc4) fusion, LB with chloramphenicol, 96 and 384 well plates
Method: (§1) Activity assays with split-CAT system: Vectors containing the split-CAT ubiquitylation system were co-transformed into E. coli and grew in the presence of the relevant antibiotics (e.g. kanamycin and streptomycin). Overnight culture was harvested and the media was replaced with fresh LB containing 8 μg/ml chloramphenicol. The culture was diluted to O.D.600=0.2 and dispended to a 96 or 384 well plate supplemented with potential small molecule drugs or DMSO only. The plate was placed in a shaker/incubator/reader and OD600 was continuously monitored during the growth.
(§2) This procedure was used to read the ubiquitylation dependent growth of IKZF1, IKZF3, CK1a and GSPT1.
(§3) In a first experiment, IKZF1 (Q13422) and GSPT1 (P15170) were analyzed as potential ubiquitylation targets. These targets were coexpressed with C-CAT-Ub and E1 and the Cereblon-E2 (Ubc4) fusion. […] These assays were performed in 96 and 384 well plates.
In a third experiment, GSPT1 was analyzed as a potential ubiquitylation target. It was expressed in-frame upstream to the N-CAT fragment. The target was co-expressed with C-CAT-Ub, wheat E1 and Cereblon-E2 (Ubc4) fusion. […] These assays were performed in 96 and 384 well plates.
Target sequence in this assay (P15170 whole entry, the tested form may be a part): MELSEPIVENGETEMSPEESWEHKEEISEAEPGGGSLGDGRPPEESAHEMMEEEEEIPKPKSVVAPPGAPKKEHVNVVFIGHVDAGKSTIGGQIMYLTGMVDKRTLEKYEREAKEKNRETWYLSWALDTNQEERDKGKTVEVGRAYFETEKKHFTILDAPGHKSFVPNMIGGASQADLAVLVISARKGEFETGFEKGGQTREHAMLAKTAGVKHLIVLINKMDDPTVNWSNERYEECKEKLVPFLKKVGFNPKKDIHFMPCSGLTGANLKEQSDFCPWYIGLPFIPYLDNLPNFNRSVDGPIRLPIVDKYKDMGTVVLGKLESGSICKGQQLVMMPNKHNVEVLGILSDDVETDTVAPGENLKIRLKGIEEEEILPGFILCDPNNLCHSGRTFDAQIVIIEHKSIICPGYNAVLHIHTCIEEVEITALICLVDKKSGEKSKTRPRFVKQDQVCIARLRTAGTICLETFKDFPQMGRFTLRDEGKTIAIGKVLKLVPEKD
Target sequence in this assay (Q96SW2 whole entry, the tested form may be a part): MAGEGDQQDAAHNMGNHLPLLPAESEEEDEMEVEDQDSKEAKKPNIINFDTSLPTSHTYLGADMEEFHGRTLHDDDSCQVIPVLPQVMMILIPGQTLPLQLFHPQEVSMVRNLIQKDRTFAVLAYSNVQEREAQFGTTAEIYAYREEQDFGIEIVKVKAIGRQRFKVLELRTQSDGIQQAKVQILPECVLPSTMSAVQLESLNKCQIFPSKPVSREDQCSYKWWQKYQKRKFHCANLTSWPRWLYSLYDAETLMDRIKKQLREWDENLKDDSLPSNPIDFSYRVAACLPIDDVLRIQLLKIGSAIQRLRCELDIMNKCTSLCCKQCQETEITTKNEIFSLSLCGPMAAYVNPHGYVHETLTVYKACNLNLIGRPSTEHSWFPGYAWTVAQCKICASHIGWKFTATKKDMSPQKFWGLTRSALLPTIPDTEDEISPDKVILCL
Target sequence in this assay (P15731 whole entry partner, the tested form may be a part): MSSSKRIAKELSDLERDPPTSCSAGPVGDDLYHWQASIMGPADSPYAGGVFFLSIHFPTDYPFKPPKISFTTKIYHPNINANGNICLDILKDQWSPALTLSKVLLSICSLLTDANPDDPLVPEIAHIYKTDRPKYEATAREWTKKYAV

[2] = target: T1, GSPT1 ubiquitylation by CRBN; conditions: Matyskiela et al. Nature 535, 252-257 (2016); cited from earlier work
Target sequence in this assay (P15170 whole entry, the tested form may be a part): as the sequence (P15170 whole entry, the tested form may be a part) above
Target sequence in this assay (Q96SW2 whole entry, the tested form may be a part): as the sequence (Q96SW2 whole entry, the tested form may be a part) above
Target sequence in this assay (Q16531 whole entry partner, the tested form may be a part): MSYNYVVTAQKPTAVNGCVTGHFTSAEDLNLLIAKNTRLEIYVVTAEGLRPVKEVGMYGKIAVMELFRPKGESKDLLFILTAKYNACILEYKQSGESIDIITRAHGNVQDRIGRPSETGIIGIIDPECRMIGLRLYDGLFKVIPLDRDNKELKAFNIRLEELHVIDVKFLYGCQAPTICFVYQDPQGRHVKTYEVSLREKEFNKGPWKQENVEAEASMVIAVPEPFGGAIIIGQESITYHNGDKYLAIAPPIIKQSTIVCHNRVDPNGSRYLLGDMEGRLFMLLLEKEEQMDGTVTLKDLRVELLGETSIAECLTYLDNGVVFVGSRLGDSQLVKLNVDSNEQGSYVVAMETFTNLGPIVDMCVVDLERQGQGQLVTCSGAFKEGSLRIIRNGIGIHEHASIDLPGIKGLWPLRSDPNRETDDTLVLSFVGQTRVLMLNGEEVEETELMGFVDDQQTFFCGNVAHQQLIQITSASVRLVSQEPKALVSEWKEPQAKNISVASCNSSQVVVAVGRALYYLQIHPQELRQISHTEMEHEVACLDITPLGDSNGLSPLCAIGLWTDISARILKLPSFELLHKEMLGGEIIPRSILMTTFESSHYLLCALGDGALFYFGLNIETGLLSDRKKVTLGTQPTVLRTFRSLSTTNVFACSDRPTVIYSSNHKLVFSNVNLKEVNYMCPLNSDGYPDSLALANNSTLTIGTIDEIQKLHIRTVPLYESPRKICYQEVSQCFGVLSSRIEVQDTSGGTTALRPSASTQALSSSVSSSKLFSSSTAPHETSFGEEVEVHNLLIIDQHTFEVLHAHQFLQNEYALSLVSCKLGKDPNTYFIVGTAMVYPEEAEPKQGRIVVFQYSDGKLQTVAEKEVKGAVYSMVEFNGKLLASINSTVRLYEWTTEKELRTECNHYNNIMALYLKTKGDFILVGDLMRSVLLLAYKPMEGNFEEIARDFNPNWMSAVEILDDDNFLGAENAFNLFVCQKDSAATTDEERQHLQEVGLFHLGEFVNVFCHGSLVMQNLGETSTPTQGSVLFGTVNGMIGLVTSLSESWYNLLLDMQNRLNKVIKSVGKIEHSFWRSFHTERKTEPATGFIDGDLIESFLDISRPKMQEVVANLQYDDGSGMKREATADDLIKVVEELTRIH

[3] = target: T2, CK1α ubiquitylation by CRBN (Homo sapiens, UniProt P48729+Q96SW2); assay: split-CAT selective growth assay, CK1a as ubiquitylation target of CRBN; format: cell-based; conditions: split-CAT system, Cereblon-E2 (Ubc4) fusion, chloramphenicol, 96 and 384 well plates
T2 construct: expressed in transfected cells; host or cells: E. coli
Method: as §1, §2
It was expressed in-frame upstream to the N-CAT fragment. […] These assays were performed in 96 and 384 well plates.

[4] = target: T3, IKZF1 ubiquitylation by CRBN (Homo sapiens, UniProt Q13422+Q96SW2); assay: split-CAT selective growth assay, IKZF1 as ubiquitylation target of CRBN; format: cell-based
T3 construct: expressed in transfected cells; host or cells: E. coli
Method: as §1, §2, §3

T3 sequence (Q13422 whole entry): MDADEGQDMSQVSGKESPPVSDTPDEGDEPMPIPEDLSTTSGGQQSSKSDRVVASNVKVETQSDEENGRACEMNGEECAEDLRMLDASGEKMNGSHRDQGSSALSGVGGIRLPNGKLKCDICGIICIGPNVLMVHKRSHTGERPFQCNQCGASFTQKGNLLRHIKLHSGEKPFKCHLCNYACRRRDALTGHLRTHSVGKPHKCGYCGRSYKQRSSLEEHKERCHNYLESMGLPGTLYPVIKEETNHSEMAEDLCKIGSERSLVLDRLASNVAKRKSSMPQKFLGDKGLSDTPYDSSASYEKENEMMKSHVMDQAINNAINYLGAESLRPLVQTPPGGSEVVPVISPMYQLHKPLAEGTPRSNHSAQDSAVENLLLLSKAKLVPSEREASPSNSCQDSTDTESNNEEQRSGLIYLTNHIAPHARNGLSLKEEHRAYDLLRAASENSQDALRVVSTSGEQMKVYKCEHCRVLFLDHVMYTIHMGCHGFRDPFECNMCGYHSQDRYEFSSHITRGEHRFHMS
T3 sequence (Q96SW2 whole entry): as the sequence (Q96SW2 whole entry, the tested form may be a part) above
T3 sequence (P15731 whole entry partner): as the sequence (P15731 whole entry partner, the tested form may be a part) above
T2 sequence (P48729 whole entry, the tested form may be a part): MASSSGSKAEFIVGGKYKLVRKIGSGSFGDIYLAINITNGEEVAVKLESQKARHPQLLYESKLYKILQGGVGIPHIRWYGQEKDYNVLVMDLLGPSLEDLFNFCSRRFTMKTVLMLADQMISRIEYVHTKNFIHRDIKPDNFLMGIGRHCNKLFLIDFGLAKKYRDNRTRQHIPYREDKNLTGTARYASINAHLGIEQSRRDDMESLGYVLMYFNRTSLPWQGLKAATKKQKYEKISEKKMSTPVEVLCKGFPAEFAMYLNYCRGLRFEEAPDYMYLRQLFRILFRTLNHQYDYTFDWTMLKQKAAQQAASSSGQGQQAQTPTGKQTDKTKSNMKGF
T2 sequence (Q96SW2 whole entry, the tested form may be a part): as the sequence (Q96SW2 whole entry, the tested form may be a part) above
T2 sequence (P15731 whole entry partner, the tested form may be a part): as the sequence (P15731 whole entry partner, the tested form may be a part) above

Row | Compound | shape of dose response curve (growth), GSPT1 target ([1]; increased concentration of drug, selective conditions with chloramphenicol) | growth of E. coli that express GSPT1 (ubiquitylation dependent growth, OD600) [1] | CRBN dependent ubiquitylation of GSPT1 in the presence of the drug [2] | growth of E. coli that express GSPT1 (ubiquitylation dependent growth, OD600) ([1]; listed as TLD) | growth of E. coli that express CK1a (ubiquitylation dependent growth, OD600) [3] | shape of dose response curve (growth), IKZF1 target ([4]; increased concentration of drug, split-CAT selection system) | growth of E. coli that express IKZF1 (ubiquitylation dependent growth, OD600) ([4]; split-CAT system, Cereblon-E2 (Ubc4) fusion, LB with chloramphenicol, 96 and 384 well plates)
1 | Cc1ccc(NC(=O)NCc2ccc3c(c2)CN(C2CCC(=O)NC2=O)C3=O)cc1Cl (stereo not shown) [CC-885] | classical bell-shaped activity (growth) curve | significantly promoted the growth | undergo CRBN dependent ubiquitylation |  |  |  | 
2 | O=C1CCC(N2C(=O)c3ccccc3C2=O)C(=O)N1 (stereo not shown) [Thalidomide] |  |  |  | not promoted | significantly promoted the growth | optimum characteristic response | significantly promoted the growth
